Measurements: EP1400530A1, “Suppression of immune response via inhibition of cathepsin S” (MASSACHUSETTS INSTITUTE OF TECHNOLOGY, priority 1996, dated 1997)

Key:
cathepsin D [1] = assay: Inhibition of cathepsin D activity in human monocytes; assay type: cell-based
HOM2 cells = assay: 35S-methionine/cysteine pulse/chase of HOM2 cells, immunoprecipitation of class II with Tu36, SDS-PAGE (Ii processing and SDS-stable peptide-loaded αβ dimers)
cathepsin D [2] = target: cathepsin D (Homo sapiens, UniProt P07339); conditions: Alteri et al. 1993; cited from earlier work
cathepsin S = cathepsin S (Homo sapiens, UniProt P25774); assay: Active site labeling of cysteine proteases with Cbz-[125I]-Tyr-Ala-CN2 in HOM2 cells after preincubation with inhibitor; conditions: LHVS concentration of 1 nM, 37°C 1 hour prior to labeling
cathepsin H = target: T1, cathepsin H (Homo sapiens, UniProt P09668); assay: Inhibition of purified human cathepsin H; assay type: biochemical; conditions: concentration not given
T1 sequence (P09668 98-335): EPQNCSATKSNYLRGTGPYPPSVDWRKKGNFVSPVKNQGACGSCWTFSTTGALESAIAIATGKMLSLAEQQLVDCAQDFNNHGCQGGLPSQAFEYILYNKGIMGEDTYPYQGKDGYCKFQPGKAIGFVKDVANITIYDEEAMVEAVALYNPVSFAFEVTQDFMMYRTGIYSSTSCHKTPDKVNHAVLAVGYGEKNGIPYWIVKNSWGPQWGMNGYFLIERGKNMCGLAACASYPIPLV

cathepsin B = cathepsin B (Homo sapiens, UniProt P07858); assay: Active site labeling of cysteine proteases with Cbz-[125I]-Tyr-Ala-CN2 in HOM2 cells after preincubation with inhibitor; conditions: inhibitor concentration of 5 nM
[3] = system: Peripheral blood mononuclear cells (PBMC's); assay type: cell-based, human; conditions: 3-5 days

cathepsin D (Homo sapiens, UniProt P07339), sequence (P07339 65-412): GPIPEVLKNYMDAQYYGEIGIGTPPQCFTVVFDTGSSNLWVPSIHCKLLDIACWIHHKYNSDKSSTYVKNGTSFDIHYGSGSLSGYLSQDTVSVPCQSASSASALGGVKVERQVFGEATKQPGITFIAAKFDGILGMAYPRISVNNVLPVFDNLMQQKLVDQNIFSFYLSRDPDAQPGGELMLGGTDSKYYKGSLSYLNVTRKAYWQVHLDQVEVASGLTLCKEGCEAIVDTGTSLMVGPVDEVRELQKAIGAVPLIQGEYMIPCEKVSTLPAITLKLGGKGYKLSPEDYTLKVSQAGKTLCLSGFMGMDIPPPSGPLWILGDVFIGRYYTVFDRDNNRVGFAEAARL
cathepsin S, sequence (P25774 115-331): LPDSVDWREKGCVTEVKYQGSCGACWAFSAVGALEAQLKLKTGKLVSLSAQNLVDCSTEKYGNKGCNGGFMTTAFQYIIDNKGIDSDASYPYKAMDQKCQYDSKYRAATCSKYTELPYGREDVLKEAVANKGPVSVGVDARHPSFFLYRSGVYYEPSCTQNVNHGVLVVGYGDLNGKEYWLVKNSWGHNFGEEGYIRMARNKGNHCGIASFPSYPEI

## CC(C)[C@H](NC(=O)[C@H](Cc1ccccc1)C[C@H](O)[C@H](Cc1ccccc1)NC(=O)OC(C)(C)C)C(=O)N[C@@H](Cc1ccccc1)C(=O)N1CCOCC1 [CGP 53437]
Cathepsin D [1]; 5 µM
  inhibits cathepsin D activity in human monocytes: 75%
Cathepsin D [1]; 50 µM
  inhibits cathepsin D activity in human monocytes: 90%
HOM2 cells; 5 µM or 50 µM CGP 53437, chase 5 hours
  SDS-stable complexes: nor did it produce a decrease
Cathepsin D [2]
  inhibits cathepsin D: nanomolar range

## CC(C)C[C@H](NC(=O)N1CCOCC1)C(=O)N[C@H](/C=C/S(=O)(=O)c1ccccc1)CCc1ccccc1 [LHVS, morpholinurea-leucine-homophenylalanine-vinylsulfone phenyl]
Cathepsin S
  labeling of cathepsin S: effectively inhibited
Cathepsin H
  inhibition of purified human cathepsin H: not inhibited
Cathepsin B
  labeling of cathepsin B: decreased, although some activity remained
HOM2 cells; 1 nM and 5 nM LHVS, chase 5 hours
  formation of SDS-stable complexes (peptide loading): marked decrease
[3]
  attenuation of 3H-thymidine uptake response to tetanus toxoid: approximately 60%

## CCOC(=O)[C@H]1O[C@@H]1C(=O)N[C@@H](CC(C)C)C(=O)NCCC(C)C (relative stereo) [E64D]
HOM2 cells; E64D, concentration not stated in Example 2
  SDS-stable dimer formation: decrease
